Reference: US20250223626A1, “METHODS OF DIAGNOSING IBS-D AND SELECTION OF IBS-D TREATMENT” (priority 2022, published 2025)
“Also recorded” adds a separate entry of the source.

How the values were obtained:
[1] = rats on HFD, 10 days of treatment, compared to controls on HFD (P=0.07)
Experimental: (§1) Therefore, HFD was used to assess the effects of persistent M. smithii elevation on stool consistency (stool wet weights). Sprague-Dawley rats were placed on a HFD (60% energy from fat [D12492; Research Diets, New Brunswick, NJ]) for 7 weeks. […] Stool collections were performed at baseline, after 7 weeks on HFD, and after the 10-day lovastatin/control treatments. Stool wet weights were determined. Stool and small bowel DNAs were extracted at euthanasia and the absolute abundance of M. smithii was determined by qPCR as described previously.

[2] = system: Methanobrevibacter smithii; details: rats on HFD, gavaged 10 days with 1.5 mg/ml, compared to controls (water)
Experimental: as §1

Compound	stool consistency (stool wet weight) [1]	M. smithii absolute load in the small bowel [2]
CC[C@H](C)C(=O)O[C@H]1C[C@@H](C)C=C2C=C[C@H](C)[C@H](CC[C@@H](O)C[C@@H](O)CC(=O)O)[C@H]21 [lovastatin hydroxyacid]	normalization	–
CC[C@H](C)C(=O)O[C@H]1C[C@@H](C)C=C2C=C[C@H](C)[C@H](CC[C@@H]3C[C@@H](O)CC(=O)O3)[C@H]21 [lovastatin lactone]	normalization	decreased; also recorded: reduction
